What follows are substances tested against T1, USP8 Rhod domain (Homo sapiens, UniProt P40818) (assay: Peptide-phage display-based deep mutational scanning (DMS), USP8 Rhod domain). Settings: PSSM, library USP8_DMS, days 2,3; position 7.
T1 construct: USP8 Rhod (174–317) (UniProt: P40818); GST (cleaved yes); made in house; host or cells: Escherichia coli BL21-Gold (DE3)
T1 sequence (P40818 174-317): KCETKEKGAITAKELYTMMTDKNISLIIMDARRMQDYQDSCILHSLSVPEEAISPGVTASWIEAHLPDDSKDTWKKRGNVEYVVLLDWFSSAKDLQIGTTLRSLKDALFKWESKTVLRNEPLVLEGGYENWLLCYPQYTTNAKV
Type: binding
Experimental: Four rounds of phage selections were carried out using the second generation human disorderome library or the constructed deep mutational scanning library. At least three individual replicates were used for each bait protein. 10 µg of GST-tagged proteins or GST control (diluted in PBS from the stock of proteins kept in the purification elution buffer) were immobilized in 100 µL PBS on a 96-well MaxiSorp (Nunc) plate overnight at 4 °C. The plates were incubated with blocking buffer (with 0.5% BSA in PBS) for 1 h at 4 °C followed by washing with 0.05% Tween 20 in PBS four times. The naïve phage library (10^11 CFU) was diluted in 1/5th volume PEG/NaCl (20% PEG-8000, 0.4 M NaCl) and 1X PBS, incubated on ice for 10 min and centrifuged at 10,000 [drawing 3] g for 10 min. The pellet was resuspended in the volume of PBS (100 µL/ well). The GST-coated control plate was incubated with 100 µL library per well in PBS for 1 h at 4 °C to remove non-specific binders. The supernatant was transferred to the target wells and incubated for 2 h at 4 °C. The wells were washed five times with 0.05% Tween 20 in PBS and the bound phages were eluted with 100 µL per well log-phase E. coli OmniMAX by incubating at 37° C while shaking. After 30 min, M13KO7 helper phages were added and incubated for an additional 45 min. The bacterial cultures were transferred to 1 mL 2YT supplemented with 100 µg/mL carbenicillin, 30 µg/mL kanamycin and 0.3 mM IPTG and grew overnight at 37 °C while shaking. The following day the cultures were centrifuged for 10 min at 2,000 [drawing 4] g, 4 °C. 1/10th volume of 10 [drawing 5] PBS was added to adjust the pH and heated at 65 °C for 10 min. The phage pools from each round were used as in-phages for the next round of selections.
The samples were prepared for NGS as previously described. […] The PCR products were normalized with 25 µL Mag-bind Total Pure NGS beads (Omega Biotek) and 10 µL of each eluted sample (Qiagen Elution Buffer) was pooled and cleaned-up with a PCR purification kit (Qiagen). The PCR product was confirmed by 2% agarose electrophoresis and the band was extracted with QIAquick Gel extraction Kit (Qiagen) and eluted with 30 µL TE buffer. The dsDNA was quantified using QuantiT PicoGreen dsDNA Assay Kit (Thermo Fisher) and sent for NGS (Illumina MiSeq v3, 1 × 150 bp read setup, 20% PhiX, NGI SciLifeLab facility, Sweden). The NGS data were demultiplexed, adapter regions were trimmed and sequences with an average quality of at least 20 were translated to peptide sequences. The NGS data were analysed using custom Python scripts. The total read NGS counts for each selection experiment of each peptide sequence were compiled and annotated in PepTools (https://slim.icr.ac.uk/tools/peptools/). Since ProP-PD is in essence a competition assay, the possibility of the input phage library influencing the selection outcome was explored. […] Pearson correlation coefficient and p-value were calculated using Python’s SciPy library.

Substance	enrichment_relative_to_wt at position 7 (wt G)	proportion of amino acid at position 7 (wt G)
KIAA1614_Q5VZ46_569_584 G7S (MERVLGSLSSPLRLLP; UniProt Q5VZ46 569-584, looked up, variant G7S)	-1.8	0.0086
KIAA1614_Q5VZ46_569_584 G7Q (MERVLGQLSSPLRLLP; UniProt Q5VZ46 569-584, looked up, variant G7Q)	1.89	0.03
KIAA1614_Q5VZ46_569_584 G7W (MERVLGWLSSPLRLLP; UniProt Q5VZ46 569-584, looked up, variant G7W)	-172	8.98e-5
KIAA1614_Q5VZ46_569_584 G7Y (MERVLGYLSSPLRLLP; peptide 569-584; UniProt Q5VZ46 569-584, looked up, variant G7Y)	-2	0.00809
KIAA1614_Q5VZ46_569_584 G7H (MERVLGHLSSPLRLLP; UniProt Q5VZ46 569-584, looked up, variant G7H)	-7.58	0.00204
KIAA1614_Q5VZ46_569_584 G7I (MERVLGILSSPLRLLP; peptide 569-584; UniProt Q5VZ46 569-584, looked up, variant G7I)	-2.84	0.00545

Same assay, conditions: PSSM, library USP8_DMS, days 2,3; position 10

Substance	enrichment_relative_to_wt at position 10 (wt S)	proportion of amino acid at position 10 (wt S)
KIAA1614_Q5VZ46_569_584 S10V (MERVLGGLSVPLRLLP; peptide 569-584; UniProt Q5VZ46 569-584, looked up, variant S10V)	-328	0.00172

Same assay, conditions: PSSM, library USP8_DMS, days 2,3; position 15

Substance	enrichment_relative_to_wt at position 15 (wt L)	proportion of amino acid at position 15 (wt L)
KIAA1614_Q5VZ46_569_584 L15A (MERVLGGLSSPLRLAP; UniProt Q5VZ46 569-584, looked up, variant L15A)	-207	0.00469
KIAA1614_Q5VZ46_569_584 L15N (MERVLGGLSSPLRLNP; peptide 569-584; UniProt Q5VZ46 569-584, looked up, variant L15N)	-89	0.0109

Same assay, conditions: ProP-PD DMS, bait USP8_Rhodanese__P40818_174_317; pair wild-type GMERVLGGLSSPLRLL (wt_00013) vs mutant; positive where wild-type fraction is higher, negative where mutant fraction is higher

Substance	hit_pair_ratio
GMERVLGGLSSPLTLL	1.50
GMERVLGGLSSPKRLL	321.97
GMERVLGGLSSPLRLF	80.49
GMERVLGGLSSPARLL	46.00
GMERVLGGLSSPVRLL	5.59
GMERVLGGLSSPLRLA	131.67
GMERVLGGLSSPLRLH	8.26
GMERVLGGMSSPLRLL	21.15
GMERVLGGLSSPLRAL	160.99
GMERVLGGLSSPLLLL	2.57
GMERVLGGLSAPLRLL	160.99
GMERVLGGLPSPLRLL	131.67
GMERVLGGLESPLRLL	131.67
GMERVLGGLSSPLWLL	-1.66
GMERVLGGFSSPLRLL	53.66
GMERVLGGWSSPLRLL	10.09
GMERVLGGLSSPLFLL	1.48
GMERVLGGLSSPLYLL	5.39
GMERVLGGLSSPLILL	-3.18
GMERVLGGLSSPLRLN	321.97

Same assay, conditions: ProP-PD pairs, bait USP8_Rhodanese__P40818_174_317; wild-type/mutant pair, wild type KIAA1614 569-584 GMERVLGGLSSPLRLL (wt_00013)

Substance	hit_pair_ratio
GMERVLGGNSSPLRLL	1.15
GMERVLFGLSSPLRLL	-3.55
EMERVLGGLSSPLRLL	2.87
GDERVLGGLSSPLRLL	-4.95
GSERVLGGLSSPLRLL	-3.84
FMERVLGGLSSPLRLL	321.97
GMELVLGGLSSPLRLL	160.99
GQERVLGGLSSPLRLL	-1.16
GMERDLGGLSSPLRLL	-11.89
GMERWLGGLSSPLRLL	-5.43
GMEAVLGGLSSPLRLL	131.67
GGERVLGGLSSPLRLL	-22.40
GMERVLLGLSSPLRLL	3.42
GMERVLDGLSSPLRLL	-20.23
GMERVLGGQSSPLRLL	-8.29
GKERVLGGLSSPLRLL	-1.45
NMERVLGGLSSPLRLL	1.70
GMERTLGGLSSPLRLL	-5.12
GMERPLGGLSSPLRLL	1.07
GMERVLWGLSSPLRLL	321.97
GMERVLKGLSSPLRLL	131.67
GMLRVLGGLSSPLRLL	32.20
DMERVLGGLSSPLRLL	1.56
GYERVLGGLSSPLRLL	1.08
GMERVQGGLSSPLRLL	107.32
GMERVLGGSSSPLRLL	2.67

Same assay, conditions: bait USP8_Rhodanese__P40818_174_317; wild-type/mutant pair ratio of averaged fractions; negative values where mutant fraction is higher

Substance	hit_pair_ratio
GLALWEAKMKQLAIRA	1107.01
GLALWEAKMKQLAWRA	1107.01
GLALWEAKMKQLAEVA	195.90
GLALWEAKMDQLAERA	25.01
GLALWEAKMKQLQERA	2.19
GLALWEAKMKQRAERA	417.62
GLALWEAKMSQLAERA	-7.21
GLALWEAKMGQLAERA	-1.24
GLALWEAKMKQLMERA	81.38
GLALWEAKMKQLAERE	4.16
GLALWEAKMKQLAEDA	66.48
GLALWEAKMMQLAERA	417.62
GLALWEAKMKNLAERA	1.69
GLALWEAKMKQLAEFA	208.81
GLALWEAKMKRLAERA	29.55
GLALWEAKMWQLAERA	2.24
GLALWEAKMKQLAERH	208.81
GLALWEAKMKKLAERA	417.62
GLALWEAKMKQLASRA	65.49
GLALWEAKMHQLAERA	-2.45
GLALWEAKMPQLAERA	553.50
GLALWEAKMKQLADRA	175.67
GLALWEAKMKQLAEAA	1107.01
GLALWEAKMKQLAERY	303.23
GLALWEAKMKQLGERA	-3.00

Same assay, conditions: wild type/mutant pair; bait USP8_Rhodanese__P40818_174_317; vs hit_library_peptide_wt GLALWEAKMKQLAERA; negative where mutant fraction exceeds wild type; ProP-PD pairs (sheet S7.B)

Substance	hit_pair_ratio
GLALWVAKMKQLAERA	417.62
GLALFEAKMKQLAERA	1107.01
GIALWEAKMKQLAERA	1.27
GMALWEAKMKQLAERA	7.96
GLALWYAKMKQLAERA	417.62
GLALTEAKMKQLAERA	1107.01
GLALWEAKQKQLAERA	151.61
GLALWDAKMKQLAERA	51.13
GLALWAAKMKQLAERA	553.50
GLALWEAKHKQLAERA	127.97
GFALWEAKMKQLAERA	114.71
GLELWEAKMKQLAERA	-13.35
GLADWEAKMKQLAERA	1107.01
GLALWEVKMKQLAERA	92.62
GLAHWEAKMKQLAERA	369.00
GLALGEAKMKQLAERA	65.12
GLGLWEAKMKQLAERA	123.66
